Test results from the kinase profiling compilation of Christmann-Franck et al. (2016).

How the values were obtained:
Assay in all cases: radiometric filter-binding kinase assay, Kinase HotSpot
MAP4K2 (human) = MAP4K2 (human) (UniProt Q12851); settings: compound 0.5 µM; ATP 10 µM
NTRK3 (human) = NTRK3 (human) (UniProt Q16288); settings: compound 0.5 µM; ATP 10 µM
AKT3 (human) = AKT3 (human) (UniProt Q9Y243); settings: compound 0.5 µM; ATP 10 µM
RPS6KB1 (human) = RPS6KB1 (human) (UniProt P23443); settings: compound 0.5 µM; ATP 10 µM
PRKD2 (human) = PRKD2 (human) (UniProt Q9BZL6); settings: compound 0.5 µM; ATP 10 µM
HCK (human) = HCK (human) (UniProt P08631); settings: compound 0.5 µM; ATP 10 µM
OXSR1 (human) = OXSR1 (human) (UniProt O95747); settings: compound 0.5 µM; ATP 10 µM
VRK1 (human) = VRK1 (human) (UniProt Q99986); settings: compound 0.5 µM; ATP 10 µM
EPHB3 (human) = EPHB3 (human) (UniProt P54753); settings: compound 0.5 µM; ATP 10 µM
SRC (human) = SRC (human) (UniProt P12931); settings: compound 0.5 µM; ATP 10 µM
IKBKB (human) = IKBKB (human) (UniProt O14920); settings: compound 0.5 µM; ATP 10 µM
SLK (human) = SLK (human) (UniProt Q9H2G2); settings: compound 0.5 µM; ATP 10 µM
PRKCA (human) = PRKCA (human) (UniProt P17252); settings: compound 0.5 µM; ATP 10 µM
TTK (human) = TTK (human) (UniProt P33981); settings: compound 0.5 µM; ATP 10 µM
DAPK1 (human) = DAPK1 (human) (UniProt P53355); settings: compound 0.5 µM; ATP 10 µM
NEK3 (human) = NEK3 (human) (UniProt P51956); settings: compound 0.5 µM; ATP 10 µM
CDK5 CDK5R1 p25 (human) = CDK5 CDK5R1 p25 (human) (UniProt Q00535+Q15078); settings: compound 0.5 µM
CDK7 CCNH MNAT1 (human) = CDK7 CCNH MNAT1 (human) (UniProt P50613+P51948+P51946); settings: compound 0.5 µM
MAPK13 (human) = MAPK13 (human) (UniProt O15264); settings: compound 0.5 µM; ATP 10 µM
ABL1 (human) = ABL1 (human) (UniProt P00519); settings: compound 0.5 µM; ATP 10 µM
ALK (human) = ALK (human) (UniProt Q9UM73); settings: compound 0.5 µM; ATP 10 µM
MAP3K5 (human) = MAP3K5 (human) (UniProt Q99683); settings: compound 0.5 µM; ATP 10 µM
STK24 (human) = STK24 (human) (UniProt Q9Y6E0); settings: compound 0.5 µM; ATP 10 µM
[1] = tested on: SGK1 (human), O00141 [S422D]; settings: compound 0.5 µM; ATP 10 µM
CDK3 CCNE1 (human) = CDK3 CCNE1 (human) (UniProt Q00526+P24864); settings: compound 0.5 µM
MAP3K3 (human) = MAP3K3 (human) (UniProt Q99759); settings: compound 0.5 µM; ATP 10 µM
MERTK (human) = MERTK (human) (UniProt Q12866); settings: compound 0.5 µM; ATP 10 µM
CAMK1G (human) = CAMK1G (human) (UniProt Q96NX5); settings: compound 0.5 µM; ATP 10 µM
PAK4 (human) = PAK4 (human) (UniProt O96013); settings: compound 0.5 µM; ATP 10 µM
RIPK2 (human) = RIPK2 (human) (UniProt O43353); settings: compound 0.5 µM; ATP 10 µM
MUSK (human) = MUSK (human) (UniProt O15146); settings: compound 0.5 µM; ATP 10 µM
GRK7 (human) = GRK7 (human) (UniProt Q8WTQ7); settings: compound 0.5 µM; ATP 10 µM
MYLK (human) = MYLK (human) (UniProt Q15746); settings: compound 0.5 µM
RPS6KA6 KD1 KD2 (human) = RPS6KA6 KD1 KD2 (human) (UniProt Q9UK32); settings: compound 0.5 µM; ATP 10 µM
PRKCD (human) = PRKCD (human) (UniProt Q05655); settings: compound 0.5 µM; ATP 10 µM
ERBB2 (human) = ERBB2 (human) (UniProt P04626); settings: compound 0.5 µM; ATP 10 µM
HIPK2 (human) = HIPK2 (human) (UniProt Q9H2X6); settings: compound 0.5 µM; ATP 10 µM
MARK1 (human) = MARK1 (human) (UniProt Q9P0L2); settings: compound 0.5 µM; ATP 10 µM
CSF1R (human) = CSF1R (human) (UniProt P07333); settings: compound 0.5 µM; ATP 10 µM
EPHA8 (human) = EPHA8 (human) (UniProt P29322); settings: compound 0.5 µM; ATP 10 µM
CDK9 CCNT1 (human) = CDK9 CCNT1 (human) (UniProt P50750+O60563); settings: compound 0.5 µM
Sequence of CDK9 CCNT1 (human) (O60563 whole entry, looked up): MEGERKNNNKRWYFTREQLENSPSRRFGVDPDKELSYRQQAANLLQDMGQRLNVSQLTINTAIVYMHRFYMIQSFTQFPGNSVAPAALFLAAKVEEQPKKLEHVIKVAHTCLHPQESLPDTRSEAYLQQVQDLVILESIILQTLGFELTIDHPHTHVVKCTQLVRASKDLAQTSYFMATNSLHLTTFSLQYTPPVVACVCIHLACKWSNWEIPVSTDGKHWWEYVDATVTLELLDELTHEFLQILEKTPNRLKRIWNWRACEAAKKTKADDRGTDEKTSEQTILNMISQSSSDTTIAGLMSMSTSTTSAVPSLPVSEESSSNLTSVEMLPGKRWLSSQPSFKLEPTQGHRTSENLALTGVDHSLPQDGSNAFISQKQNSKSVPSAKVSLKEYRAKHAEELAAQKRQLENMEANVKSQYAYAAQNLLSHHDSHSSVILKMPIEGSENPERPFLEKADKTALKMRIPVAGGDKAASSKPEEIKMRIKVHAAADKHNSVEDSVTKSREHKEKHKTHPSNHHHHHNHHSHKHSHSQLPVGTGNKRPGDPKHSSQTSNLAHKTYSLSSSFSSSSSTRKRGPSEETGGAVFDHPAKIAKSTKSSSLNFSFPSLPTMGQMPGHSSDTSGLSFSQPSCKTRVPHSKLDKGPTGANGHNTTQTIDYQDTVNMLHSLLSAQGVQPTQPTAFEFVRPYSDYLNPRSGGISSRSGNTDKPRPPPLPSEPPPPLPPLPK
Sequence of CDK9 CCNT1 (human) (P50750 whole entry, looked up): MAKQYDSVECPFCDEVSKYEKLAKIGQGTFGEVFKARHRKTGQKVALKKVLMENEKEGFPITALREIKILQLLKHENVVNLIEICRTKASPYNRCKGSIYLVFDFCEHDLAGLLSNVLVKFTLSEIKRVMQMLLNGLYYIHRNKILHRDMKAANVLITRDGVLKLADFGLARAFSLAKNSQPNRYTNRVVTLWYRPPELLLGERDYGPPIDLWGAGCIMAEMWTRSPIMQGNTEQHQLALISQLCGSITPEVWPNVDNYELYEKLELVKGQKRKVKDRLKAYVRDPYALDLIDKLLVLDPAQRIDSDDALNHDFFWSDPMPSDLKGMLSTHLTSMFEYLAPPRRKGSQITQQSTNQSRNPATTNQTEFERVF

Sequence of GRK7 (human) (Q8WTQ7 whole entry, looked up): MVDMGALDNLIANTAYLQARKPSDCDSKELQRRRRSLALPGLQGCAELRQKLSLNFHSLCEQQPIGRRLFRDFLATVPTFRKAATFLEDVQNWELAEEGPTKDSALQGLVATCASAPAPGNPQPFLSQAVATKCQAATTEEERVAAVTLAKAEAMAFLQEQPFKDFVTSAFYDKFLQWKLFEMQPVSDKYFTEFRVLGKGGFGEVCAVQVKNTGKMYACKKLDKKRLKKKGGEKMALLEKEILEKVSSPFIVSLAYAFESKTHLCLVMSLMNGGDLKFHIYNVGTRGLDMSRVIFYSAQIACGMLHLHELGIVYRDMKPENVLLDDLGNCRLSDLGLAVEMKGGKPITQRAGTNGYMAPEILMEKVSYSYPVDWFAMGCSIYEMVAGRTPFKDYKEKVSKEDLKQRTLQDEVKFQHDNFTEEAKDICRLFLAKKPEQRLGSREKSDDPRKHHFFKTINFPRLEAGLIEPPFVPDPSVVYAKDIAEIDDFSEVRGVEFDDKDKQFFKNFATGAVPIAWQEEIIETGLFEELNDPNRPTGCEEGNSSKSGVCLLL
Sequence of MARK1 (human) (Q9P0L2 whole entry, looked up): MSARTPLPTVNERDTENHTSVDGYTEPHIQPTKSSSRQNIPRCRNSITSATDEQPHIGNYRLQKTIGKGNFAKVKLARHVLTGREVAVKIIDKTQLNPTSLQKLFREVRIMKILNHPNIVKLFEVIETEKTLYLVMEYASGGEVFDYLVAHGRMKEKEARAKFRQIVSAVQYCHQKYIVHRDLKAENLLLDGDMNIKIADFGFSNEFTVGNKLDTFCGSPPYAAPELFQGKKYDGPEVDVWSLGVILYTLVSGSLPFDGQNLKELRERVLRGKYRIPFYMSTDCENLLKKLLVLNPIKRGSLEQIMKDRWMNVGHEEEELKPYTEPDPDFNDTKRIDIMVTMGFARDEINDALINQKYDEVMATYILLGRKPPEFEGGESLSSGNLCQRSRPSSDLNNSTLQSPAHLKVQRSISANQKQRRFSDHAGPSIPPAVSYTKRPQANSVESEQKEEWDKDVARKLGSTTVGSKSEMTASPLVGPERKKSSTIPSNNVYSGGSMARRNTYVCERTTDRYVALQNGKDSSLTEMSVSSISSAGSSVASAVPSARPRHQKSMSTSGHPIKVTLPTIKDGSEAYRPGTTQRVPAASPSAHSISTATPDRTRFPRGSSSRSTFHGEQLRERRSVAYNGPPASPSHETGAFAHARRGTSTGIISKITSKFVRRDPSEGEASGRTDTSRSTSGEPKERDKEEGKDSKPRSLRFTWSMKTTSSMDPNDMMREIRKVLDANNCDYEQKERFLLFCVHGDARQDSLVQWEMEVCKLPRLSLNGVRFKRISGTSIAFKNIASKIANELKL
Sequence of NEK3 (human) (P51956 whole entry, looked up): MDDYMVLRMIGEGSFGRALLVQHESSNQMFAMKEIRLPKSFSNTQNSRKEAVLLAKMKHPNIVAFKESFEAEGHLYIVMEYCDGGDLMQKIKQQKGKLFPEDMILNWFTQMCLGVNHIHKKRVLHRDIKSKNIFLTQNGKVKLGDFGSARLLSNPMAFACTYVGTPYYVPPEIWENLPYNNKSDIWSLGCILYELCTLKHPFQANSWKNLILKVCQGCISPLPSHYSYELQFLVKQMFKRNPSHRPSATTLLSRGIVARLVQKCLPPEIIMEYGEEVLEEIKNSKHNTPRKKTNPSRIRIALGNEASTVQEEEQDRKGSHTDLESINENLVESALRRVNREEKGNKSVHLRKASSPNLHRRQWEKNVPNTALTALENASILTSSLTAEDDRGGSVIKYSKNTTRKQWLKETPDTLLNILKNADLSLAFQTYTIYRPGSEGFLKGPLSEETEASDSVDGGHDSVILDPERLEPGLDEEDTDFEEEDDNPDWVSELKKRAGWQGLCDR
Sequence of TTK (human) (P33981 whole entry, looked up): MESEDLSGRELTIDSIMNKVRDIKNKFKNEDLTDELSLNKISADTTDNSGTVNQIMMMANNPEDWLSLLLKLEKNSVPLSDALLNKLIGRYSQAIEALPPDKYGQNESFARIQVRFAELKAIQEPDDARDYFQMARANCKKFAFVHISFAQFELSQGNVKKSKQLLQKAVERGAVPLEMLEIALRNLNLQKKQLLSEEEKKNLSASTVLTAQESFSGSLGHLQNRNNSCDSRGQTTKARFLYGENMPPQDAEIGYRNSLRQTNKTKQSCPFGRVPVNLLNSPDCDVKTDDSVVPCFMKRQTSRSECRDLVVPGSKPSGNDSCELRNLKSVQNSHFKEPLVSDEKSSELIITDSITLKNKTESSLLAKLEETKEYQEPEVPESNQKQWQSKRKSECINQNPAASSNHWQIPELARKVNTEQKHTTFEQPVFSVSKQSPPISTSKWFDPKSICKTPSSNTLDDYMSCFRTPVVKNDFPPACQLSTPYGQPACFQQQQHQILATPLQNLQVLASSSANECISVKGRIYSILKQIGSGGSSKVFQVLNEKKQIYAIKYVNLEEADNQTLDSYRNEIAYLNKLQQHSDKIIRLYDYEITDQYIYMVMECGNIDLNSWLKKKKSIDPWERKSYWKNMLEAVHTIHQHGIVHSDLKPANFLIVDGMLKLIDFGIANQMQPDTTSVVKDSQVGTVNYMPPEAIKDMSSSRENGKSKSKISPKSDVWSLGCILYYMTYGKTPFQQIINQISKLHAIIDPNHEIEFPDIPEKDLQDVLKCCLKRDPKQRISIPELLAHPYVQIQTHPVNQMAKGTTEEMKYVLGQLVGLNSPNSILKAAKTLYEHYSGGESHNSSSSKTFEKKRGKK
Sequence of MAPK13 (human) (O15264 whole entry, looked up): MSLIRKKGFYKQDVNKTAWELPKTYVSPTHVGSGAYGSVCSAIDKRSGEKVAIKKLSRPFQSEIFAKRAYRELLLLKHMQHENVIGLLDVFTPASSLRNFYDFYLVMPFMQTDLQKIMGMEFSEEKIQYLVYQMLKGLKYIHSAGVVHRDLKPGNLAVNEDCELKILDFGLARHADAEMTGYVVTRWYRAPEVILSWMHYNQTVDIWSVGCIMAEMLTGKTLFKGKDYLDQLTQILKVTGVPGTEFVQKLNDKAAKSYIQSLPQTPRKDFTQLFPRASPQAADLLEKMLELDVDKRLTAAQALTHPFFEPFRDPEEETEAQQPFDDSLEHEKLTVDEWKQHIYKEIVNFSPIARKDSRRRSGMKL
Sequence of OXSR1 (human) (O95747 whole entry, looked up): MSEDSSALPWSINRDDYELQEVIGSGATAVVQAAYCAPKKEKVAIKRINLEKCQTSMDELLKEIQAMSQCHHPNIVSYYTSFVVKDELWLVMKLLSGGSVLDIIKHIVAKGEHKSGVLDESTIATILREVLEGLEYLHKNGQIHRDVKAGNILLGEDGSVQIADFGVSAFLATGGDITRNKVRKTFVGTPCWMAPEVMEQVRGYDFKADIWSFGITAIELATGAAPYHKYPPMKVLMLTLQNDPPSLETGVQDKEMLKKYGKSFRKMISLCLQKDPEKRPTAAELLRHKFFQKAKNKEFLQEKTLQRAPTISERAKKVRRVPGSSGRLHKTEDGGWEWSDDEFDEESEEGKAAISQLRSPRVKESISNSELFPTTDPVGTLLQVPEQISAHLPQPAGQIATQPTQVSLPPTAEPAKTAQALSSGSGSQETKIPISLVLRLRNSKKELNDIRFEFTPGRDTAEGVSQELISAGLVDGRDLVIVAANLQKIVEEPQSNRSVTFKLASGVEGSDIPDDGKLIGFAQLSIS

O=c1[nH]c2ccccc2n1C1CCN(Cc2ccc(-c3nc4cc5[nH]cnc5cc4nc3-c3ccccc3)cc2)CC1
residual activity (MAP4K2 (human)): 105%
residual activity (NTRK3 (human)): 116%
residual activity (AKT3 (human)): 103%
residual activity (RPS6KB1 (human)): 101%
residual activity (PRKD2 (human)): 109%
residual activity (HCK (human)): 99.6%
residual activity (OXSR1 (human)): 102%
residual activity (VRK1 (human)): 98.3%
residual activity (EPHB3 (human)): 104%
residual activity (SRC (human)): 103%
residual activity (IKBKB (human)): 101%
residual activity (SLK (human)): 97.7%
residual activity (PRKCA (human)): 84.3%
residual activity (TTK (human)): 104%
residual activity (DAPK1 (human)): 82.9%
residual activity (NEK3 (human)): 97.2%
residual activity (CDK5 CDK5R1 p25 (human)): 96.9%
residual activity (CDK7 CCNH MNAT1 (human)): 99.1%
residual activity (MAPK13 (human)): 102%
residual activity (ABL1 (human)): 98.2%
residual activity (ALK (human)): 106%
residual activity (MAP3K5 (human)): 93.8%
residual activity (STK24 (human)): 90.7%
residual activity [1]: 102%
residual activity (CDK3 CCNE1 (human)): 97.5%
residual activity (MAP3K3 (human)): 101%
residual activity (MERTK (human)): 96.2%
residual activity (CAMK1G (human)): 101%
residual activity (PAK4 (human)): 102%
residual activity (RIPK2 (human)): 89.2%
residual activity (MUSK (human)): 96.8%
residual activity (GRK7 (human)): 98.5%
residual activity (MYLK (human)): 104%
residual activity (RPS6KA6 KD1 KD2 (human)): 109%
residual activity (PRKCD (human)): 98.8%
residual activity (ERBB2 (human)): 88.9%
residual activity (HIPK2 (human)): 110%
residual activity (MARK1 (human)): 104%
residual activity (CSF1R (human)): 97%
residual activity (EPHA8 (human)): 106%
residual activity (CDK9 CCNT1 (human)): 93.2%

O=C1NC(=O)c2cc(Nc3ccc(F)cc3)c(Nc3ccc(F)cc3)cc21
residual activity (MAP4K2 (human)): 98.2%
residual activity (NTRK3 (human)): 95.6%
residual activity (AKT3 (human)): 100%
residual activity (RPS6KB1 (human)): 95.5%
residual activity (PRKD2 (human)): 86.8%
residual activity (HCK (human)): 88.3%
residual activity (OXSR1 (human)): 101%
residual activity (VRK1 (human)): 93%
residual activity (EPHB3 (human)): 94.7%
residual activity (SRC (human)): 101%
residual activity (IKBKB (human)): 95.6%
residual activity (SLK (human)): 65.5%
residual activity (PRKCA (human)): 99.3%
residual activity (TTK (human)): 95.4%
residual activity (DAPK1 (human)): 81.3%
residual activity (NEK3 (human)): 99.1%
residual activity (CDK5 CDK5R1 p25 (human); ATP 10 µM): 85.9%
residual activity (CDK7 CCNH MNAT1 (human); ATP 10 µM): 100%
residual activity (MAPK13 (human)): 99.4%
residual activity (ABL1 (human)): 95.7%
residual activity (ALK (human)): 92.6%
residual activity (MAP3K5 (human)): 96.6%
residual activity (STK24 (human)): 93.7%
residual activity [1]: 103%
residual activity (CDK3 CCNE1 (human); ATP 10 µM): 98.9%
residual activity (MAP3K3 (human)): 102%
residual activity (MERTK (human)): 97.4%
residual activity (CAMK1G (human)): 106%
residual activity (PAK4 (human)): 95.1%
residual activity (RIPK2 (human)): 95%
residual activity (MUSK (human)): 90.2%
residual activity (GRK7 (human)): 106%
residual activity (MYLK (human); ATP 10 µM): 100%
residual activity (RPS6KA6 KD1 KD2 (human)): 97.4%
residual activity (PRKCD (human)): 98.2%
residual activity (ERBB2 (human)): 107%
residual activity (HIPK2 (human)): 96.6%
residual activity (MARK1 (human)): 98.9%
residual activity (CSF1R (human)): 104%
residual activity (EPHA8 (human)): 95.5%
residual activity (CDK9 CCNT1 (human); ATP 10 µM): 95.4%
